Results as given in the NIST ThermoML archive (doi:10.1016/j.jct.2004.07.024).

Experiment: xn = mol fraction of the nth substance listed
Conditions: 101.33 kPa, Liquid

C[S+](C)[O-] [dimethyl sulfoxide] + c1ccccc1
Conditions | mass density [kg/m3]
293.15 K, x2 = 0.0589 | 1084.47
293.15 K, x2 = 0.1255 | 1067.5
293.15 K, x2 = 0.1852 | 1052.58
293.15 K, x2 = 0.2561 | 1035.37
293.15 K, x2 = 0.2934 | 1026.52
293.15 K, x2 = 0.3345 | 1016.91
293.15 K, x2 = 0.3782 | 1006.87
293.15 K, x2 = 0.4312 | 994.89
293.15 K, x2 = 0.4757 | 985.02
293.15 K, x2 = 0.5963 | 958.97
293.15 K, x2 = 0.6875 | 939.81
293.15 K, x2 = 0.7369 | 929.61
293.15 K, x2 = 0.8637 | 903.71
293.15 K, x2 = 0.9562 | 885.02
303.15 K, x2 = 0.0596 | 1075.16
303.15 K, x2 = 0.1345 | 1056.18
303.15 K, x2 = 0.194 | 1041.49
303.15 K, x2 = 0.2473 | 1028.63
303.15 K, x2 = 0.2893 | 1018.74
303.15 K, x2 = 0.3465 | 1005.44
303.15 K, x2 = 0.4213 | 988.61
303.15 K, x2 = 0.4835 | 974.94
303.15 K, x2 = 0.5431 | 962.12
303.15 K, x2 = 0.5968 | 950.76
303.15 K, x2 = 0.6763 | 934.26
303.15 K, x2 = 0.7781 | 913.49
303.15 K, x2 = 0.8511 | 898.8
303.15 K, x2 = 0.9542 | 878.27
313.15 K, x2 = 0.059 | 1064.91
313.15 K, x2 = 0.1267 | 1047.76
313.15 K, x2 = 0.1873 | 1032.78
313.15 K, x2 = 0.2676 | 1013.53
313.15 K, x2 = 0.2933 | 1007.51
313.15 K, x2 = 0.3378 | 997.22
313.15 K, x2 = 0.4321 | 976.04
313.15 K, x2 = 0.4752 | 966.67
313.15 K, x2 = 0.5514 | 950.39
313.15 K, x2 = 0.6011 | 939.97
313.15 K, x2 = 0.6837 | 923
313.15 K, x2 = 0.7653 | 906.53
313.15 K, x2 = 0.8681 | 886.1
313.15 K, x2 = 0.9499 | 870
323.15 K, x2 = 0.0602 | 1054.55
323.15 K, x2 = 0.1257 | 1038.36
323.15 K, x2 = 0.1833 | 1024.43
323.15 K, x2 = 0.2512 | 1008.48
323.15 K, x2 = 0.3294 | 990.67
323.15 K, x2 = 0.3931 | 976.6
323.15 K, x2 = 0.4615 | 961.88
323.15 K, x2 = 0.5232 | 948.95
323.15 K, x2 = 0.5972 | 933.77
323.15 K, x2 = 0.6502 | 923.09
323.15 K, x2 = 0.7149 | 910.25
323.15 K, x2 = 0.7896 | 895.64
323.15 K, x2 = 0.8788 | 878.39
323.15 K, x2 = 0.9556 | 863.66
333.15 K, x2 = 0.0593 | 1044.75
333.15 K, x2 = 0.1279 | 1028.18
333.15 K, x2 = 0.1801 | 1015.83
333.15 K, x2 = 0.2566 | 998.31
333.15 K, x2 = 0.3263 | 982.84
333.15 K, x2 = 0.3862 | 969.9
333.15 K, x2 = 0.4523 | 955.99
333.15 K, x2 = 0.5213 | 941.87
333.15 K, x2 = 0.5869 | 928.72
333.15 K, x2 = 0.6532 | 915.7
333.15 K, x2 = 0.7256 | 901.71
333.15 K, x2 = 0.7959 | 888.33
333.15 K, x2 = 0.8864 | 871.29
333.15 K, x2 = 0.9116 | 866.58
343.15 K, x2 = 0.0593 | 1034.67
343.15 K, x2 = 0.1356 | 1016.68
343.15 K, x2 = 0.2182 | 997.86
343.15 K, x2 = 0.2636 | 987.78
343.15 K, x2 = 0.3296 | 973.51
343.15 K, x2 = 0.3938 | 960.01
343.15 K, x2 = 0.4686 | 944.74
343.15 K, x2 = 0.5213 | 934.26
343.15 K, x2 = 0.5769 | 923.38
343.15 K, x2 = 0.6623 | 907.03
343.15 K, x2 = 0.7385 | 892.7
343.15 K, x2 = 0.7801 | 884.99
343.15 K, x2 = 0.8569 | 870.86
343.15 K, x2 = 0.9503 | 853.81
353.15 K, x2 = 0.058 | 1024.84
353.15 K, x2 = 0.1585 | 1001.73
353.15 K, x2 = 0.2335 | 985.09
353.15 K, x2 = 0.3065 | 969.42
353.15 K, x2 = 0.3765 | 954.93
353.15 K, x2 = 0.4187 | 946.35
353.15 K, x2 = 0.4682 | 936.49
353.15 K, x2 = 0.5242 | 925.57
353.15 K, x2 = 0.5912 | 912.8
353.15 K, x2 = 0.6404 | 903.56
353.15 K, x2 = 0.7556 | 882.4
353.15 K, x2 = 0.8024 | 873.93
353.15 K, x2 = 0.8701 | 861.79
353.15 K, x2 = 0.9284 | 851.4

C[S+](C)[O-] [dimethyl sulfoxide] + Cc1ccccc1
Conditions | mass density [kg/m3]
293.15 K, x2 = 0.0689 | 1077.87
293.15 K, x2 = 0.1505 | 1053.27
293.15 K, x2 = 0.2269 | 1031.56
293.15 K, x2 = 0.3036 | 1010.99
293.15 K, x2 = 0.3758 | 992.64
293.15 K, x2 = 0.4568 | 973.24
293.15 K, x2 = 0.5177 | 959.33
293.15 K, x2 = 0.5769 | 946.41
293.15 K, x2 = 0.6342 | 934.37
293.15 K, x2 = 0.6885 | 923.31
293.15 K, x2 = 0.7512 | 911.04
293.15 K, x2 = 0.8181 | 898.38
293.15 K, x2 = 0.8856 | 886.05
293.15 K, x2 = 0.9553 | 873.71
303.15 K, x2 = 0.0652 | 1069.85
303.15 K, x2 = 0.1295 | 1050.38
303.15 K, x2 = 0.1806 | 1035.51
303.15 K, x2 = 0.2563 | 1014.57
303.15 K, x2 = 0.3098 | 1000.5
303.15 K, x2 = 0.3845 | 981.74
303.15 K, x2 = 0.4456 | 967.18
303.15 K, x2 = 0.5169 | 950.98
303.15 K, x2 = 0.5813 | 937.04
303.15 K, x2 = 0.6645 | 919.88
303.15 K, x2 = 0.7499 | 903.18
303.15 K, x2 = 0.8114 | 891.64
303.15 K, x2 = 0.8802 | 879.15
303.15 K, x2 = 0.9532 | 866.39
313.15 K, x2 = 0.0661 | 1059.41
313.15 K, x2 = 0.1202 | 1043.16
313.15 K, x2 = 0.1891 | 1023.36
313.15 K, x2 = 0.2403 | 1009.32
313.15 K, x2 = 0.2945 | 995.06
313.15 K, x2 = 0.3615 | 978.24
313.15 K, x2 = 0.4369 | 960.28
313.15 K, x2 = 0.5156 | 942.59
313.15 K, x2 = 0.5813 | 928.56
313.15 K, x2 = 0.6558 | 913.41
313.15 K, x2 = 0.7267 | 899.63
313.15 K, x2 = 0.7956 | 886.78
313.15 K, x2 = 0.8821 | 871.32
313.15 K, x2 = 0.9448 | 860.52
323.15 K, x2 = 0.0884 | 1042.41
323.15 K, x2 = 0.1236 | 1032.08
323.15 K, x2 = 0.1869 | 1014.1
323.15 K, x2 = 0.2536 | 996.08
323.15 K, x2 = 0.3285 | 976.94
323.15 K, x2 = 0.3996 | 959.75
323.15 K, x2 = 0.4501 | 948.11
323.15 K, x2 = 0.4969 | 937.7
323.15 K, x2 = 0.5563 | 925
323.15 K, x2 = 0.616 | 912.74
323.15 K, x2 = 0.6725 | 901.61
323.15 K, x2 = 0.7562 | 885.79
323.15 K, x2 = 0.8532 | 868.42
323.15 K, x2 = 0.9458 | 852.63
333.15 K, x2 = 0.0598 | 1040.93
333.15 K, x2 = 0.1436 | 1016.4
333.15 K, x2 = 0.2258 | 993.84
333.15 K, x2 = 0.2931 | 976.44
333.15 K, x2 = 0.3652 | 958.78
333.15 K, x2 = 0.4112 | 948.06
333.15 K, x2 = 0.4859 | 931.36
333.15 K, x2 = 0.5301 | 921.94
333.15 K, x2 = 0.5965 | 908.31
333.15 K, x2 = 0.6789 | 892.24
333.15 K, x2 = 0.7215 | 884.23
333.15 K, x2 = 0.7899 | 871.86
333.15 K, x2 = 0.8512 | 861.15
333.15 K, x2 = 0.9503 | 844.53
343.15 K, x2 = 0.0599 | 1030.68
343.15 K, x2 = 0.1102 | 1015.93
343.15 K, x2 = 0.1798 | 996.46
343.15 K, x2 = 0.2549 | 976.61
343.15 K, x2 = 0.3169 | 961.13
343.15 K, x2 = 0.3858 | 944.75
343.15 K, x2 = 0.4405 | 932.38
343.15 K, x2 = 0.5258 | 914.08
343.15 K, x2 = 0.5936 | 900.34
343.15 K, x2 = 0.6678 | 886.01
343.15 K, x2 = 0.7166 | 876.96
343.15 K, x2 = 0.7925 | 863.42
343.15 K, x2 = 0.8792 | 848.65
343.15 K, x2 = 0.9552 | 836.24
353.15 K, x2 = 0.0801 | 1014.55
353.15 K, x2 = 0.1526 | 994.06
353.15 K, x2 = 0.2215 | 975.63
353.15 K, x2 = 0.2869 | 959.04
353.15 K, x2 = 0.3568 | 942.26
353.15 K, x2 = 0.4205 | 927.79
353.15 K, x2 = 0.4956 | 911.6
353.15 K, x2 = 0.5723 | 895.96
353.15 K, x2 = 0.6321 | 884.4
353.15 K, x2 = 0.7058 | 870.71
353.15 K, x2 = 0.768 | 859.69
353.15 K, x2 = 0.8363 | 848.04
353.15 K, x2 = 0.8913 | 838.96
353.15 K, x2 = 0.9524 | 829.17
